Assay results reported in US20140323500A1, “NADPH OXIDASE 4 INHIBITORS AND USE THEREOF” (GENKYOTEX SA, priority 2011, published 2014).
Read-outs that look alike come from different tables or passages of the source. One block for each compound: values may come before it.

Assays:
[1] = target: T1, human Nox4 (Homo sapiens, UniProt Q9NPH5); experiment: ROS production by membranes expressing human Nox4, cell-free Amplex Red assay; format: biochemical; conditions: for Ki: read-out: Ki hNox4
T1 construct: expressed in transfected cells; host or cells: T-REx-293 (hNOX4 T-REx-293), tetracycline-induced; membrane fraction
T1 sequence (Q9NPH5 1-578): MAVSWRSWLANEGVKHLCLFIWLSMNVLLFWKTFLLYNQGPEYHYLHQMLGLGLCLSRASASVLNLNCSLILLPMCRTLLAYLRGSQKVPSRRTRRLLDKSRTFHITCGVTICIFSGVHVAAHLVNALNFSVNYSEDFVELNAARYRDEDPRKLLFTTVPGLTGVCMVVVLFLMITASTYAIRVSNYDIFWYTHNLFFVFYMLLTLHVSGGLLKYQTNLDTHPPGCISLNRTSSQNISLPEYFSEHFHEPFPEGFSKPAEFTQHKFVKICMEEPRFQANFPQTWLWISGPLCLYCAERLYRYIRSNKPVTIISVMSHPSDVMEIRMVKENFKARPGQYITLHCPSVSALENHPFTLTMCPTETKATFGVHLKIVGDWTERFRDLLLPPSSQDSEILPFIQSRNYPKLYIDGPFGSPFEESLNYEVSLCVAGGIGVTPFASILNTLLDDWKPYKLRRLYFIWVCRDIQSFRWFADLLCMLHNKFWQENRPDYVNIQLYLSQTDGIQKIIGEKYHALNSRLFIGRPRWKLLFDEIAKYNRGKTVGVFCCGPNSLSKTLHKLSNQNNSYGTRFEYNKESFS
T1 sequence (P13498 2-195 partner limits assumed): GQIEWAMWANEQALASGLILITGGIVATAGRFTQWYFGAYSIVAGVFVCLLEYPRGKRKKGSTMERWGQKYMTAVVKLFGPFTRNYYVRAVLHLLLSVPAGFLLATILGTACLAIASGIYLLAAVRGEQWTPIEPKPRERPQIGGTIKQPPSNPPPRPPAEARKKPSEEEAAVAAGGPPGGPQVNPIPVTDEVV
Method in brief: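 Membranes from tetracycline-induced (1 μg/ml, 24 h) T-REx cells overexpressing human Nox4, incubated in PBS with Amplex Red, HRP and co-factors; NADPH starts ROS production. Compounds 1 nM-100 μM, 20 min at 37° C.; fluorescence (ex 544/em 590 nm) over 10 min; Ki via Cheng-Prusoff, ≥3 experiments in triplicate.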

[2] = system: xanthine/xanthine oxidase; experiment: Antioxidant activity in an assay of Example 1 (ROS production by xanthine/xanthine oxidase, Amplex Red); format: biochemical; conditions: as measured in an assay of Example 1
xanthine/xanthine oxidase, sequence (P47989 whole entry): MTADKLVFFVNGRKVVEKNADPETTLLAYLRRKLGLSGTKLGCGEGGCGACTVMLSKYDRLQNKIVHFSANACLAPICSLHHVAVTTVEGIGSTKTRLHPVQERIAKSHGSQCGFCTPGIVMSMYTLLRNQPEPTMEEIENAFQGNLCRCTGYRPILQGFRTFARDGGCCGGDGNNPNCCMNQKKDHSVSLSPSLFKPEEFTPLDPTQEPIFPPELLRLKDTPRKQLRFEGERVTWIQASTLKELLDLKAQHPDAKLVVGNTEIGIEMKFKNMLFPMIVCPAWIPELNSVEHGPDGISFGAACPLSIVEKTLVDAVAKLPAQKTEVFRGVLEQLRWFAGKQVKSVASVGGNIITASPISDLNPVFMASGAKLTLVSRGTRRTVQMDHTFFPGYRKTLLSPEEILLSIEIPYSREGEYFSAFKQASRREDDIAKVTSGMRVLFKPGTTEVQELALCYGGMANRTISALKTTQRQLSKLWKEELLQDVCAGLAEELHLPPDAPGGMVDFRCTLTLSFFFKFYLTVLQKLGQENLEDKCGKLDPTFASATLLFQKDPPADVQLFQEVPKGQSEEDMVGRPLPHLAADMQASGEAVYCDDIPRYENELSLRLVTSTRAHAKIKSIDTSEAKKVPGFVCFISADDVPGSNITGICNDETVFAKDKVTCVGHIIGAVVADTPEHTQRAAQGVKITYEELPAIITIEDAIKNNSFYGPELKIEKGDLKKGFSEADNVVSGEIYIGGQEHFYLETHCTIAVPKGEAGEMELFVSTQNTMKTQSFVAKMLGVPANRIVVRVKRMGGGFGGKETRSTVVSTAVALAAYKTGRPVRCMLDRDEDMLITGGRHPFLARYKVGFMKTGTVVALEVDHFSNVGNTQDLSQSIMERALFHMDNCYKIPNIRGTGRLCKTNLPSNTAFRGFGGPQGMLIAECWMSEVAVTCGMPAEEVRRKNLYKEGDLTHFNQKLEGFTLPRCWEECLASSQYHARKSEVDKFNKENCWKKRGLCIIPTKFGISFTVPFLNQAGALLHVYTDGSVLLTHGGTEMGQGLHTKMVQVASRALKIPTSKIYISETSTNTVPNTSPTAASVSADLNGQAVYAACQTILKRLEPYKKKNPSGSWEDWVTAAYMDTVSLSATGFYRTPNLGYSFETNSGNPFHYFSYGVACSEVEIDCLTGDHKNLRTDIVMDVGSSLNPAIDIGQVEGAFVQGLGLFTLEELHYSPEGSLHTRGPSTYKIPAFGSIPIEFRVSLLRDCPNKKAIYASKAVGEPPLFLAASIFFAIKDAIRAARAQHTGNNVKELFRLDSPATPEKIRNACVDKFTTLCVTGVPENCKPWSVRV
Description: Reactive Oxygen Species (ROS) production by membranes expressing either human Nox1, or human Nox2 or human Nox4 or human Nox5 or by xanthine/xanthine oxidase were measured using the Amplex Red (AR) method following a slightly modified version of the manufacturer's instruction manual (Invitrogen). Briefly, membranes or xanthine were incubated in PBS with Amplex Red, Horse Radish Peroxidase (HRP) and appropriated co-factors. ROS production was induced by addition of NADPH to NOX-expressing membrane or by addition of xanthine to xanthine oxidase. Non-specific signal was measured in the absence of membranes or in the absence of xanthine.
Antagonist activity of compounds was measured in the presence of increasing concentrations ranging from 1 nM to 100 μM. After an incubation of 20 min in a plate shaker and incubator (Titramax 1000, VWR) at 37° C. with weak agitation (300 rpm), ROS levels were measured for 10 min in a BMG Fluostar microplate reader with excitation and emission wavelengths of 544 nm and 590 nm respectively.

[3] = system: murine M-CSF-primed BMNC; experiment: RANKL-induced increase in cytosolic Ca2+ by Fura2 fluorescence; format: cell-based, mice; conditions: 20 μmol/L co-applied with RANKL during stimulation (30 hours); wildtype cells; FIG. 4B
From the text: A: comparison of cells from wildtype and Nox4−/− mice; B: Effect of a Nox4 inhibitor (Compound (1) or solvent on calcium concentrations in wildtype cells; n≧3; *p<0.05.
Epiphyseal ends of the femora and tibiae were cut off and the bone marrow was flushed out with DMEM containing 10% FCS. Bone marrow stromal cells were collected and plated at a density of 2×10^6 cells/cm^2 in α-MEM containing 10% FCS and 1% penicillin/streptomycin. Following attachment, medium was replaced by basal medium supplemented with 25 ng/ml M-CSF (R&D Systems) for 2 days. Thereafter, cells were cultured for additional 6 days in differentiation medium containing 25 ng/ml M-CSF and 50 ng/ml RANKL (R&D Systems). TRAP staining was performed using the leukocyte acid phosphatase kit (Sigma) following the manufactures instructions according to Mukherjee et al., 2008, supra.
The role of Nox4 for the RANKL-induced increase in cytosolic Ca^2+ was investigated by FURA2 fluorescence as described below. […]
Cells were grown on 96 well plates and differentiated with or without RANKL as described above. […] After another washing step intracellular free Fura-2 and Ca^2+-bound Fura-2 was measured at the wavelength 340 and 380 nm by the ELISA Reader EnVision (PerkinElmer) in 100 μl HEPES Tyrode. […] Eventually the intracellular Ca^2+ was calculated as described by Grynkiewicz et al., 1985, J. Biol. Chem., 260(6):3440-3450.

[4] = target: T2, human Nox2 (Homo sapiens, UniProt P04839); experiment: ROS production by membranes expressing human Nox2, cell-free Amplex Red assay; format: biochemical; conditions: read-out: Ki hNox2
T2 construct: host or cells: T-REx-CHO (hNOX2 T-REx-CHO), tetracycline-induced; membrane fraction
T2 sequence (P04839 2-570 limits assumed): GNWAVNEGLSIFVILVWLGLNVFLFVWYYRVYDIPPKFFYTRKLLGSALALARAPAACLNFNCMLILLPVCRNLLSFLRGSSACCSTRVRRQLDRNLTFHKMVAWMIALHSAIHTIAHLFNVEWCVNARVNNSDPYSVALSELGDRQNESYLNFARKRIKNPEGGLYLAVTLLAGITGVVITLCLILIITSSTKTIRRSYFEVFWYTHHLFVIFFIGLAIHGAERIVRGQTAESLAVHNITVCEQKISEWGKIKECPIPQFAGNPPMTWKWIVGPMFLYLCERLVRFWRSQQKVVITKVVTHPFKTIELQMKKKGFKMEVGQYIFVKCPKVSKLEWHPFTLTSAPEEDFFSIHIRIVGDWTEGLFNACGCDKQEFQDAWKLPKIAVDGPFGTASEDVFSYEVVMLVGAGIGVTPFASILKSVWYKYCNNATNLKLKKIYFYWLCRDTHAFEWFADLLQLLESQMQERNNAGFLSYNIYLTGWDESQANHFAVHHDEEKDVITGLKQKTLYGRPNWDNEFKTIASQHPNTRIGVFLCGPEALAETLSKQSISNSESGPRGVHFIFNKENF
T2 sequence (P13498 2-195 partner limits assumed): T1 sequence (P13498 2-195 partner limits assumed)
Method in brief: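 Membranes from tetracycline-induced (1 μg/ml, 24 h) T-REx-CHO cells stably expressing hNox2 with p22 and cofactors, incubated in PBS with Amplex Red, HRP and cofactors; NADPH starts ROS production. Compounds 1 nM–100 μM, 20 min at 37 °C, then fluorescence (544/590 nm) read for 10 min; Ki by Cheng-Prusoff.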

[5] = system: female mice subjected to ovariectomy; experiment: Ovariectomy-induced osteoporosis (bone loss) in mice; format: in vivo; conditions: distal femur 6 weeks after ovariectomy, compound 1 at 20 and 60 mg/kg, pamidronat 10 mg/kg once a week, microCT
Description: BMD of the left femur was measured by peripheral quantitative computed tomography (QCT) using an XCT Research QCT machine (Stratec Medizintechnik, Pforzheim, Germany). One slice (0.2 mm thick) in the mid-diaphysis of the femur and 3 slices in the distal femoral metaphysis located 1.5, 2, and 2.5 mm proximal to the articular surface of the knee joint were measured. BMD values of the distal femoral metaphysic were calculated as the mean of 3 slices. A voxel size of 0.070 mm and a threshold of 710 mg/cm^3 were used for calculation of BMD as described in Hofbauer et al., 2009, Arthritis Rheum., 60(5):1427-1437.
The control group received daily gavages by the solvent.
To study the latter effect, female mice were subjected to ovariectomy to induce osteoporosis and the effect of pharmacological inhibition of Nox4 with a Nox4 inhibitor as well as acute genetic knockout of the protein was studied. For this, mice were subjected to ovariectomy 8 weeks after birth and treatment at 60 mg/kg with a Nox4 inhibitor of the invention was started 2 days after the operation and continued throughout the study (6 weeks).
3, Hamburg was used which completely blocks osteoclast activity. […] For this, bones were scanned with a skyscan 1176 and bone density was analysed with the integrated software using two phantoms with 0.25 g/cm^3 and 0.75 g/cm^3 as reference. A 2 mm portion of the femur from the tibia plateau was analysed for total and trabecular bone density by the software provided by the manufacturer of the machine. […] For this method, the femurs were loaded to failure by 3-point bending tests using a Zwick Z020/TN2A materials testing machine (Zwick, Ulm, Germany) with a 1 kN force detector, and a force resolution of 0.01N. The distance between the lower supports for the bending tests was 5 mm. Crosshead speed during testing was 0.2 mm/minute for all measurements. From the force-displacement data, ultimate force (Fmax; in N) was calculated.

[6] = cell-free membranes, Amplex Red, Cheng-Prusoff, average of at least three experiments in triplicate

IC50 for Nox4 relative to Nox2 ([1]; Nox4 versus Nox2, assay of Example 1): approximately 10 fold
antioxidant activity [2]: no antioxidant activity
Structure (SMILES): CN(C)c1cccc(-c2c3c(=O)n(-c4ccccc4Cl)[nH]c3cc(=O)n2C)c1 [2-(2-chlorophenyl)-4-[3-(dimethylamino)phenyl]-5-methyl-1H-pyrazolo[4,3-c]pyridine-3,6(2H,5H)-dione]
RANKL induced increase in cytosolic Ca2+ [3]: prevented the RANKL induced increase in cytosolic Ca^2+

Ki [1, 6]: 128 nM
Ki [4, 6]: 950 nM
Structure (SMILES): O=c1c2c(-c3cc(Cl)cc(Cl)c3)n(Cc3ccncc3)c(=O)cc2[nH]n1-c1ccccc1Cl [(37), 2-(2-chlorophenyl)-4-(3,5-dichlorophenyl)-5-(pyridin-4-ylmethyl)-1H-pyrazolo[4,3-c]pyridine-3,6(2H,5H)-dione]

Ki [1, 6]: 149 nM
Ki [4, 6]: 1500 nM
Structure (SMILES): CN(C)c1cccc(-c2c3c(=O)n(-c4ccccc4Cl)[nH]c3cc(=O)n2Cc2cccnc2)c1 [(39), 2-(2-chlorophenyl)-4-[3-(dimethylamino)phenyl]-5-(pyridin-3-ylmethyl)-1H-pyrazolo[4,3-c]pyridine-3,6(2H,5H)-dione]

Ki [1, 6]: 159 nM
Ki [4, 6]: 540 nM
Structure (SMILES): O=c1c2c(-c3cc(F)ccc3F)n(Cc3cccnc3)c(=O)cc2[nH]n1-c1ccccc1Cl [(42), 2-(2-chlorophenyl)-4-(2,5-difluorophenyl)-5-(pyridin-3-ylmethyl)-1H-pyrazolo[4,3-c]pyridine-3,6(2H,5H)-dione]

Ki ([1]; Simvastatin comparison): > 133000 nM
Ki ([4]; Simvastatin comparison): > 162000 nM
Structure (SMILES): CCC(C)(C)C(=O)O[C@H]1C[C@@H](C)C=C2C=C[C@H](C)[C@H](CC[C@@H]3C[C@@H](O)CC(=O)O3)[C@H]21 [Simvastatin, reference compound]

Structure (SMILES): NCCC(O)(P(=O)(O)O)P(=O)(O)O [pamidronat, reference compound]
absolute bone density (total) ([5]; FIG. 6A): increased absolute bone density
absolute trabecular bone density ([5]; FIG. 6B): increased
relative inhibition of ovarectomy-induced total bone loss ([5]; FIG. 6C): ~50%
relative inhibition of trabecular bone loss ([5]; FIG. 6D): approximately 60%
